PubChem BioAssay AID2060626 (Molecular Pharmacology Branch, DTP, NCI, 2025)
Values joined by “and” are separate entries in the source; they are usually repeats but may differ in a detail not shown here. Identical values can stand only once.

System: 168753-222-R-J1-PDC complex spheroid viability
Assay: Anticancer human tumor 168753-222-R-J1-PDC patient-derived bladder carcinoma cell line growth inhibition [CLK]
Settings: for viability, T/C: stronger effect = lower value
From the text: A high-throughput screen of multi-cell type tumor spheroids was designed to identify active combinations of […] and targeted small molecules. Complex spheroids include a stromal component modeled by human endothelial cells (HUVEC) and fibroblasts modeled by human mesenchymal stem cells (MSCs). The concentration ranges selected for each drug and investigational agent were based upon clinically achievable concentrations if the clinical Cmax of the agent was known.
Compounds. The drugs and investigational agents: cirtuvivint (SM08502; NSC835563), CC-671 (NSC850746), vemurafenib (NSC761431), tapotoclax (NSC804041), sotorasib (NSC818433), adagrasib (NSC831453), MRTX-1133 (NSC836407), BAY2416964 (NSC825713), copanlisib (NSC816437), inavolisib (NSC800729), abemaciclib (NSC768073), osimertinib (NSC779217), entinostat (NSC756642), eltanexor (KPT-8602, NSC794443), venetoclax (NSC766270), ceralasertib (NSC777638), bortezomib (NSC756655), olaparib (NSC753686), talazoparib (NSC767125), alisertib (NSC759677), peposertib (NSC802822), gemcitabine (NSC613327), 5-fluorouracil (NSC19893), SN-38 (NSC673596), oxaliplatin (NSC266046), paclitaxel (NSC125973), and doxorubicin (NSC123127), were obtained from the National Cancer Institute (NCI) Developmental Therapeutics Program Chemical Repository. The FDA-approved anticancer drug set is available from the Developmental Therapeutics Program at https://dtp.cancer.gov/organization/dscb/obtaining/available plates.htm. […] The stock solutions were prepared in dimethyl sulfoxide (DMSO, Sigma-Aldrich, St. Louis, MO, cat. D2650), except for the platinum complexes which were prepared in saline (Quality Biological, Gaithersburg, MD, cat. 114-055-101), at 800-fold the tested concentration and stored at -70 degrees C prior to their use. All drugs and investigational agents were tested over a range starting from a high concentration at or near the clinical Cmax and decreasing in half-log increments. If the clinical Cmax for an agent had not been determined, the highest concentration tested was 10 microM.
Cell Culture. All cells were maintained in an incubator at 37 degrees C and 5% CO2 with 95% humidity. The PDC lines were cultured according to standard operating procedures established by the NCI PDMR. Briefly, all PDCs were thawed and cultured in Matrigel-coated flasks prepared with a working solution of 1X Ham's F-12 nutrient mix, without supplementation (Invitrogen, Waltham, MA, cat. 11765054), 100 U/mL penicillin-streptomycin (Invitrogen, cat. 15140122), and 2.5% Matrigel (Corning Inc., Corning, NY, cat. 354248) for the first three passages. The 947758-054-R-J2-PDC line was cultured in 6B/Colon 1A media, which includes advanced DMEM/F-12 (Thermo Fisher Scientific, cat. 12634028), 10 mM HEPES (Thermo Fisher Scientific, cat. 15630080), 1X GlutaMAX supplement (Thermo Fisher Scientific, cat. 35050061), 0.1 mg/mL primocin (InvivoGen, cat. ant-pm-2), 10% defined fetal bovine serum, heat inactivated (HyClone Laboratories Inc., cat. SH30070.03HI), 1.25 mM N-Acetyl-L-cysteine (Sigma-Aldrich, cat. A9165), 10 mM nicotinamide (Sigma-Aldrich, cat. N0636), 1X B-27 supplement (Thermo Fisher Scientific, cat. 17504044), 1X N-2 supplement (Thermo Fisher Scientific, cat. 17502048), and 10 microM Y-27632 dihydrochloride (Tocris Bioscience, cat. 1254). The 876862-298-R-J1-PDC was cultured in 6E media, which includes all 6B/Colon 1A media components plus 50% L-WRN conditioned media (ATCC, cat. CRL-3276), 50 ng/mL recombinant human EGF recombinant protein (hEGF; Thermo Fisher Scientific, cat. PHG0311), 10 ng/mL recombinant human fibroblast growth factor 10 (hGFG-10; PeproTech, cat. 100-26), 1 ng/mL recombinant human fibroblast growth factor 2 (hFGF-2; PeproTech, cat. 100-18B), and 1 µM prostaglandin E2 (PGE2; Tocris, cat. 2296). The 227483-062-R1-J1-PDC line was cultured in Panc media, containing all 6E components except hFGF-2, with the addition of 500 nM SB-431542 (Selleckchem, cat. S1067) and 10 nM gastrin (Tocris, cat. 3006). […]

[1] = curve of first compound, second compound 0.0316 µM
[2] = curve of first compound, second compound 0.1 µM
[3] = curve of first compound, second compound 0.316 µM
[4] = curve of first compound, second compound 1 µM
[5] = curve of first compound, second compound 3.16 µM
[6] = curve of first compound, second compound 10 µM
[7] = second compound 0.0316 µM, first compound 0.0316 µM
[8] = second compound 0.0316 µM, first compound 0.1 µM
[9] = second compound 0.0316 µM, first compound 0.316 µM
[10] = second compound 0.0316 µM, first compound 1 µM
[11] = second compound 0.0316 µM, first compound 3.16 µM
[12] = second compound 0.0316 µM, first compound 10 µM
[13] = second compound 0.1 µM, first compound 0.0316 µM
[14] = second compound 0.1 µM, first compound 0.1 µM
[15] = second compound 0.1 µM, first compound 0.316 µM
[16] = second compound 0.1 µM, first compound 1 µM
[17] = second compound 0.1 µM, first compound 3.16 µM
[18] = second compound 0.1 µM, first compound 10 µM
[19] = second compound 0.316 µM, first compound 0.0316 µM
[20] = second compound 0.316 µM, first compound 0.1 µM
[21] = second compound 0.316 µM, first compound 0.316 µM
[22] = second compound 0.316 µM, first compound 1 µM
[23] = second compound 0.316 µM, first compound 3.16 µM
[24] = second compound 0.316 µM, first compound 10 µM
[25] = second compound 1 µM, first compound 0.0316 µM
[26] = second compound 1 µM, first compound 0.1 µM
[27] = second compound 1 µM, first compound 0.316 µM
[28] = second compound 1 µM, first compound 1 µM
[29] = second compound 1 µM, first compound 3.16 µM
[30] = second compound 1 µM, first compound 10 µM
[31] = second compound 3.16 µM, first compound 0.0316 µM
[32] = second compound 3.16 µM, first compound 0.1 µM
[33] = second compound 3.16 µM, first compound 0.316 µM
[34] = second compound 3.16 µM, first compound 1 µM
[35] = second compound 3.16 µM, first compound 3.16 µM
[36] = second compound 3.16 µM, first compound 10 µM
[37] = second compound 10 µM, first compound 0.0316 µM
[38] = second compound 10 µM, first compound 0.1 µM
[39] = second compound 10 µM, first compound 0.316 µM
[40] = second compound 10 µM, first compound 1 µM
[41] = second compound 10 µM, first compound 3.16 µM
[42] = second compound 10 µM, first compound 10 µM
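Further: viability measured after seven days of drug exposure.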
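Wherever viability, T/C is given: luminescence signal used as surrogate for viable cell amount; 100% = DMSO vehicle control wells.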

CNC(=O)c1ccc(Nc2nc(OC3CCCC3)c3c(-c4ccc5nc(C)oc5c4)c[nH]c3n2)c(OC)c1
viability, T/C (compound 0.0316 µM): 101% [middle of 12 runs]
viability, T/C (compound 0.1 µM): 99.3% [middle of 12 runs]
viability, T/C (compound 1 µM): 45.1% [middle of 12 runs]
viability, T/C (compound 3.16 µM): 33.5% [middle of 12 runs]
viability, T/C (compound 10 µM): 23.6% [middle of 12 runs]
IC50 (compound alone, run of 08/01/2023): 900 nM [middle of 12 runs]

CC(C)CC(NC(=O)C(Cc1ccccc1)NC(=O)c1cnccn1)B(O)O (stereo not drawn)
viability, T/C (compound 0.000949 µM): 84.2% and 86.5%
viability, T/C (compound 0.003 µM): 34.9% and 45.1%
viability, T/C (compound 0.00949 µM): 0.64% and 3.31%
viability, T/C (compound 0.03 µM): 1.34% and 1.82%
viability, T/C (compound 0.0949 µM): 0.77% and 0.3%
viability, T/C (compound 0.3 µM): 0.23% and 0.22%
IC50 (curve of compound): 2.11 nM and 2.62 nM

COC1C=CCC(C)C(C)S(=O)(=O)NC(=O)c2ccc3c(c2)N(CC2CCC21)CC1(CCCc2cc(Cl)ccc21)CO3 (stereo not drawn)
viability, T/C (compound 0.0316 µM): 88.5% and 107%
viability, T/C (compound 0.1 µM): 98.9% and 95.5%
viability, T/C (compound 0.316 µM): 61.2% and 104%
viability, T/C (compound 1 µM): 53.9% and 76%
viability, T/C (compound 3.16 µM): 35.8% and 49.4%
viability, T/C (compound 10 µM): 20.4% and 19%
IC50 (curve of compound): 1100 nM and 2930 nM

Nc1ccccc1NC(=O)c1ccc(CNC(=O)OCc2cccnc2)cc1
viability, T/C (compound 0.0316 µM): 62.3% and 96.6%
viability, T/C (compound 0.1 µM): 73.6% and 91.6%
viability, T/C (compound 0.316 µM): 60.1% and 85.8%
viability, T/C (compound 1 µM): 37.7% and 86.4%
viability, T/C (compound 3.16 µM): 38.6% and 60.3%
viability, T/C (compound 10 µM): 11.8% and 22.8%
IC50 (curve of compound): 763 nM and 4400 nM

CC1COCCN1c1cc(C2(S(C)(=N)=O)CC2)nc(-c2ccnc3[nH]ccc23)n1 (stereo not drawn) + CN1CCN(c2cc(C(=O)Nc3cc4cc(-c5cnn(C)c5)ccc4cn3)ccn2)CC1
IC50 [1]: 1750 nM
IC50 [2]: 115 nM
IC50 [3]: < 31.6 nM
IC50 [4]: < 31.6 nM
IC50 [5]: < 31.6 nM
IC50 [6]: < 31.6 nM
viability, T/C [7]: 47.2%
viability, T/C [8]: 74.3%
viability, T/C [9]: 67.3%
viability, T/C [10]: 89.2%
viability, T/C [11]: 29.4%
viability, T/C [12]: 26.9%
viability, T/C [13]: 61.5%
viability, T/C [14]: 53.8%
viability, T/C [15]: 22%
viability, T/C [16]: 30.5%
viability, T/C [17]: 15.8%
viability, T/C [18]: 15.1%
viability, T/C [19]: 10.6%
viability, T/C [20]: 9.28%
viability, T/C [21]: 9%
viability, T/C [22]: 7.71%
viability, T/C [23]: 7.38%
viability, T/C [24]: 4.64%
viability, T/C [25]: 0.24%
viability, T/C [26]: 0.3%
viability, T/C [27]: 0.2%
viability, T/C [28]: 0.19%
viability, T/C [29]: 0.18%
viability, T/C [30]: 0.82%
viability, T/C [31]: 0.19%
viability, T/C [32]: 1.51%
viability, T/C [33]: 1.3%
viability, T/C [34]: 0.18%
viability, T/C [35]: 0.26%
viability, T/C [36]: 1.69%
viability, T/C [37]: 0.23%
viability, T/C [38]: 0.28%
viability, T/C [39]: 1.49%
viability, T/C [40]: 0.34%
viability, T/C [41]: 0.56%
viability, T/C [42]: 1.29%

C=CC(=O)Nc1cc(Nc2nccc(-c3cn(C)c4ccccc34)n2)c(OC)cc1N(C)CCN(C)C
viability, T/C (compound 0.000949 µM): 111% and 100%
viability, T/C (compound 0.003 µM): 108% and 99.8%
viability, T/C (compound 0.00949 µM): 97.8% and 98.2%
viability, T/C (compound 0.03 µM): 98% and 106%
viability, T/C (compound 0.0949 µM): 103% and 106%
viability, T/C (compound 0.3 µM): 89.4% and 103%
IC50 (curve of compound): > 300 nM

CC(=O)O[C@H]1C(=O)[C@@]2(C)[C@H]([C@H](OC(=O)c3ccccc3)[C@]3(O)C[C@H](OC(=O)[C@H](O)[C@@H](NC(=O)c4ccccc4)c4ccccc4)C(C)=C1C3(C)C)[C@]1(OC(C)=O)CO[C@@H]1C[C@@H]2O + CN1CCN(c2cc(C(=O)Nc3cc4cc(-c5cnn(C)c5)ccc4cn3)ccn2)CC1
IC50 [1]: < 31.6 nM
IC50 [2]: < 31.6 nM
IC50 [3]: < 31.6 nM
IC50 [4]: < 31.6 nM
IC50 [5]: < 31.6 nM
IC50 [6]: < 31.6 nM
viability, T/C [7]: 22.1%
viability, T/C [8]: 11.1%
viability, T/C [9]: 11.2%
viability, T/C [10]: 10.7%
viability, T/C [11]: 11.2%
viability, T/C [12]: 12.3%
viability, T/C [13]: 12.3%
viability, T/C [14]: 10.6%
viability, T/C [15]: 10.9%
viability, T/C [16]: 9.64%
viability, T/C [17]: 9.88%
viability, T/C [18]: 11.4%
viability, T/C [19]: 10.7%
viability, T/C [20]: 10.2%
viability, T/C [21]: 10.4%
viability, T/C [22]: 9.61%
viability, T/C [23]: 10.3%
viability, T/C [24]: 13.2%
viability, T/C [25]: 0.12%
viability, T/C [26]: 0.32%
viability, T/C [27]: 0.16%
viability, T/C [28]: 0.11%
viability, T/C [29]: 0.15%
viability, T/C [30]: 0.21%
viability, T/C [31]: 0.05%
viability, T/C [32]: 0.19%
viability, T/C [33]: 0.17%
viability, T/C [34]: 0.06%
viability, T/C [35]: 0.09%
viability, T/C [36]: 0.14%
viability, T/C [37]: 0.07%
viability, T/C [38]: 0.11%
viability, T/C [39]: 0.51%
viability, T/C [40]: 0.1%
viability, T/C [41]: 0.17%
viability, T/C [42]: 0.23%
